Assay [1] has as its system SK-Mel-2. Description: Migration assay (Boyden chambers) in SK-Mel-2. The format is cell-based, human. The settings on record: for cell migration: 50 μM agonist. Here is the method: (§1) Cell Culture—SK-Mel-2 and SK-Mel-24 (ATCC) cell lines were cultured in Eagle's Minimum Essential Medium supplemented with 10% fetal bovine serum at 37° C./5% CO2. HEMA-LP human melanocytes (Cascade Biologics) were maintained in Medium 254 with Human Melanocyte Growth Supplement (Cascade Biologics).
(§2) Adenoviral Overexpression—Recombinant adenoviruses containing human LacZ, Epac1 or Epac2 were constructed (Adeno-X Expression System, Clontech). Human Epac1 and Epac2 cDNA were kindly provided by Dr. J. L Bos (University Medical Center, Utrecht, Netherlands). Adenovirus of PKA alpha subunit was purchased from Vector Biolabs. The corresponding encoding sequence was cloned in topShuttle2 (Clontech) to obtain a mammalian expression cassette, which was then excised and ligated into BD Adeno-X Viral DNA. The recombinant vector was introduced into human embryonic kidney cells (HEK293) to recover infectious adenovirus. Viruses were propagated in HEK293 cells, and purified by BD Adeno-X Virus Purification Kits. Viral titer was determined by Adeno-X Rapid Titer Kit (Clontech). As a control study, adenovirus vector harboring LacZ was used at the same MOI. Cells were infected with adenovirus for 24 hand subjected to each experiment. In some experiments (For HS production and NDST-1 expression, FIGS. 5B, 5C, 5D, 5E, 5F and 5G), cells were further incubated for 48 h in medium without adenovirus followed by each experiment.
(§3) Migration assay—Migration assay was performed using methods previously known in the art using the Boyden chambers (pore size 8 μm, BD Biosciences). The upper chamber's polycarbonate insert film parts were coated by 75 μl fibronectin (50 μg/ml in PBS, Biosciences). Cultured cells were detached and the number of the cells was adjusted to 1×10^3 cells/μl of media. One-hundred micro liter of the cell suspension was applied to the center of the upper chamber and then attached to the lower chamber. Thereafter, the cells were incubated in CO2 incubator at 37° C. for 3 h unless specified. After fixation with 10% formalin neutral solution, cells were stained with Diff-Quick kit (Dade Behring). After mechanical removing of the cells on the upper surface of the membrane with a cotton swab, cells that migrated onto the lower surface of the membrane were counted. Pictures were taken with a microscope followed by counting migrated cells with Image J software in randomly chosen 10 fields.
Transfection of siRNA—Epac1 siRNA (Ambion), syndecan-2 siRNA (Ambion) and NDST-1 siRNA (QIAGEN) were transfected into subconfluent SK-Mel-2 cells using Lipofectamine 2000 (Invitrogen). For Epac1, a pool of double-stranded siRNAs containing equal parts of the following antisense sequence was used: 5′-AUCACUGUAUACCGGUUCC-3′ (SEQ ID NO: 1). For syndecan-2, a pool of double-stranded siRNAs containing equal parts of the following antisense sequence was used: 5′-CUCUGGACUCUCUACAUCC-3′ (SEQ ID NO: 2). For NDST-1, a pool of double-stranded siRNAs containing equal parts of the following antisense sequence was used: 5′-UUUAUUAGCAGUUAGUUCG-3′ (SEQ ID NO: 3). The corresponding non-targeting siRNA Silencer negative Control #2 siRNA (AM4613, Ambion) was used as a negative control. Twenty-four hours later, the medium containing siRNA was changed to fresh medium and incubated for 72 h. When siRNA transfection was combined with adenoviral infection, siRNA transfection followed the adenoviral infection.

For assay [2], the system named is SK-Mel-24. Description: Migration assay (Boyden chambers) in SK-Mel-24. The settings on record: FIG. 1A; for cell migration: 50 μM agonist. The format is cell-based, human. Here is the method:
as §1, §2
as §3, with “Thereafter, the cells were incubated in CO2 incubator at 37° C. for 3 h unless specified. After fixation with 10% formalin neutral solution, cells were stained with Diff-Quick kit (Dade Behring).” left out, “Pictures were taken with a microscope followed by counting migrated cells with Image J software in randomly chosen 10 fields.” left out

Assay [3] has as its system HEMA-LP human melanocytes. Description: Migration assay (Boyden chambers) in HEMA-LP melanocytes. The format is cell-based. The settings on record: HEMA-LP melanocyte; 50 μM agonist; FIG. 1A. Here is the method:
as §1
as §2, with “As a control study, adenovirus vector harboring LacZ was used at the same MOI. Cells were infected with adenovirus for 24 hand subjected to each experiment. In some experiments (For HS production and NDST-1 expression, FIGS. 5B, 5C, 5D, 5E, 5F and 5G), cells were further incubated for 48 h in medium without adenovirus followed by each experiment.” left out
Migration assay—Migration assay was performed using methods previously known in the art using the Boyden chambers (pore size 8 μm, BD Biosciences). […] After mechanical removing of the cells on the upper surface of the membrane with a cotton swab, cells that migrated onto the lower surface of the membrane were counted. […]

The subject of assay [4] is Cloudman S91 melanoma cell line. Description: Migration assay in Cloudman S91 melanoma cells. It is filed as cell-based, mouse. To be noted: 50 μM 8-pMeOPT, FIG. 6B. Here is the method:
as §3
Lung colonization assay—To examine the metastatic potential of melanoma cells, lung colonization assay was performed using methods known in the art. […] Two weeks after the injection, the number of metastatic colonies on the surface of the lungs were counted under a dissection microscope. […]

Assay [5] concerns syndecan-2 colocalization with lipid rafts. Description: Immunocytochemical staining of syndecan-2 and lipid rafts in SK-Mel-2. It is filed as cell-based, human. The settings on record: for colocalization of syndecan-2 with lipid rafts: SK-Mel-2, 50 μM 8-pMeOPT for 15 min; for Epac1-induced syndecan-2 colocalization with lipid rafts: SK-Mel-2 overexpressing Epac1, NCD 10 μM for 3 h, FIG. 3D. The method, then:
(§4) Immunocytochemistry—Immunocytochemistry was performed using methods previously known in the art. SK-Mel-2 on glass coverslips were fixed, washed and permeabilized with 0.02% Triton-X followed by incubation with primary and secondary antibodies for 30 min at room temperature. Alexa Fluor 488- and 594-conjugated goat anti-rabbit or anti-mouse antibodies (Molecular Probes) were used. The pictures were taken with a digital camera operated on a Nikon Eclipse TE200 or a confocal microscope (Zeiss Axiovert 100M). For mounting media, Prolong-Gold antifade with DAPI (Molecular Probes) was used.

The test system of assay [6] is tubulin. Description: Immunocytochemical staining with tubulin in SK-Mel-2. It is filed as cell-based, human. To be noted: SK-Mel-2 overexpressing Epac1; NCD 10 μM for 3 h; FIG. 3C. The method, then:
as §4

For assay [7], the system named is syndecan-2 in lipid rafts-rich fraction. Description: Immunoblot for syndecan-2 in lipid rafts-rich fraction (sucrose density gradient) of SK-Mel-2. The format is cell-based, human. To be noted: SK-Mel-2 overexpressing Epac1; 10 μM NCD for 3 h; FIG. 3E. Here is the method: Western Blotting—Western blot analysis was performed using methods previously known in the art. Cells were lysed and sonicated in lysis buffer containing 25 mM Tris-HCl (pH7.5), 150 mM NaCl, 5 mM MgCl2, 1% NP-40, 1 mM DTT, 5% glycerol, phosphatase inhibitor (Sigma), protease inhibitor cocktail (Sigma) and 1 mM NaF. Equal amounts of protein (20 μg) were subjected to SDS-PAGE. After protein separation by electrophoresis, samples were transferred to Millipore Immobilon-P membrane and immunoblotting with antibodies was performed. Signal intensities of the bands were quantified with Image J software (NIH). Sucrose density gradient centrifugation—Lipid rafts-enriched membrane fractions were prepared using methods previously known in the art. Briefly, SK-Mel-2 cells were homogenated in 2 ml of 500 mM sodium carbonate (pH 11.0) with protease inhibitors (1 μg/ml leupeptin, 0.1 mM PMSF and 50 U/ml egg white trypsin inhibitor) and lysed by sonication. The lysate was then adjusted to 45% sucrose by mixing with 2 ml of 90% sucrose prepared in MBS buffer (25 mM 2-Morpholinoethanesulfonic acid (MES), pH 6.5, […]) and placed at the bottom of 5% and 35% discontinuous sucrose gradient (in MBS buffer containing 100 mM sodium carbonate) for an overnight ultra-centrifugation (260,000 g). Fractions were removed sequentially from the top and designated as fractions 1 through 13. […]
A general note: Immunoblotting shows a protein as a band on a membrane.

“Also recorded” adds a separate entry of the source.

On to `CCCC(=O)Nc1ncnc2c1ncn2[C@@H]1O[C@@H]2COP(=O)(O)O[C@H]2[C@H]1O` [6-MB-cAMP, N6-Monobutyryladenosine-3′,5′-cyclic monophosphate], for which the cell migration result in assay [1] (SK-Mel-2, FIG. 1A) is listed as “did not increase cell migration; also recorded: neither 6-MB-cAMP nor PKA overexpression, increased melanoma cell migration”; in assay [2], “did not increase cell migration; also recorded: neither 6-MB-cAMP nor PKA overexpression, increased melanoma cell migration”; in assay [3], “did not increase cell migration”.

Turning to `COc1ccc(Sc2nc3c(N)ncnc3n2[C@@H]2O[C@@H]3COP(=O)(O)O[C@H]3[C@H]2OC)cc1` [8-pMeOPT, 8-pMeOPT-2-O-Me-cAMP], the “cell migration, combination with overexpression of Epacs over Epac overexpression alone” value in assay [1] (SK-Mel-2, 50 μM 8-pMeOPT, FIG. 1A) is given as “further increased cell migration”; in assay [2] (50 μM 8-pMeOPT), “such increase was not observed”. The cell migration entry in assay [1] (SK-Mel-2, FIG. 1A) is on record as “increased melanoma cell migration”; in assay [2], “increased melanoma cell migration”; in assay [3], “not in a melanocyte cell line”. Also, the migration entry in assay [4] is given as “increased migration”. Besides, the “colocalization of syndecan-2 with lipid rafts” value is given as “increased colocalization of syndecan-2 with lipid rafts” in assay [5] (FIG. 2A) and “increased co-localization of syndecan-2 with lipid rafts” in assay [5] (FIG. 2A, listed as Epac agonist).

Turning to `COC(=O)Nc1nc2ccc(C(=O)c3cccs3)cc2[nH]1` [NCD, Nocodazole], in assay [1] (SK-Mel-2 overexpressing Epac1, NCD 10 μM, FIG. 3F), the Epac1-induced migration entry is reported as “inhibited Epac-induced migration; also recorded: inhibited Epac1-induced migration”. Moreover, the “Epac1-induced fine tubulin network formation” value in assay [6] is reported as “network formation was inhibited”. The figures for the “Epac1-induced syndecan-2 colocalization with lipid rafts” value in assay [5] and in assay [5] (listed as Nocodazole) were “decreased Epac1-induced syndecan-2 colocalization with lipid rafts” and “decreased the colocalization of syndecan-2 with lipid rafts”, respectively. In addition, the “syndecan-2 expression in lipid raft-rich fraction” value in assay [7] was “decreased expression of sydecan-2 in the lipid rafts-rich fraction; also recorded: decreased syndecan-2 expression in lipid raft-rich fraction”.

Turning to `[Na+].[O-][Cl+2]([O-])[O-]` [sodium chlorate], the Epac-induced migration result in assay [1] (sodium chlorate, data not shown) was “decreased Epac-induced migration”.

As for cyclodextrin [CXD], in assay [1] (SK-Mel-2 overexpressing Epac1, 10 μg/ml CXD, FIG. 2C), the Epac1 overexpression-induced migration entry is “inhibited; also recorded: decreased Epac1 overexpression-induced migration”. The basal migration result in assay [1] (SK-Mel-2 overexpressing LacZ, 10 μg/ml CXD, assay 8 h, FIG. 2C) was “inhibited”. The “Epac1-overexpression-induced colocalization of syndecan-2 with lipid rafts” value in assay [5] (SK-Mel-2 with Epac1 adenovirus, 10 μg/ml CXD, FIG. 2A) was “decreased Epac-induced syndecan-2 colocalization with lipid-rafts; also recorded: decreased Epac1-overexpression-induced colocalization of syndecan-2 with lipid rafts”.

The values are drawn from patent publication US20110060029A1, “METHOD OF TREATING CANCER BY MODULATING EPAC” (priority 2009, published 2011).
